Measured values taken from the NIST ThermoML archive (doi:10.1016/j.fluid.2012.03.025).
Numbers after ± are expanded uncertainties.

Legend:
[1] = xn = mol fraction of the nth substance listed; details: 298.15 K, 101 kPa, Liquid, Vibrating tube method
[2] = refractive index (Na D-line) (dimensionless); xn = mol fraction of the nth substance listed; details: 298.15 K, 101 kPa, Liquid, Standard Abbe refractometry
[3] = Crystal

`CCCCCCC(C)O` (stereo unspecified) [2-octanol] + CCCCCCCCCCCCN(CCCCCCCCCCCC)CCCCCCCCCCCC showed a mass density ([1]; x2 = 0) of 816.49 ± 0.11 kg/m3 and a refractive index ([2]; x2 = 0) of 1.4244 ± 0.0004.
`CCCCCCC(C)O` (stereo unspecified) [2-octanol] + CCCCCCCCCCO gave a mass density ([1]; x1 = 0.0505) of 826.1 ± 0.1 kg/m3, a mass density ([1]; x1 = 0.1001) of 825.65 ± 0.1 kg/m3 and a mass density ([1]; x1 = 0.1998) of 824.82 ± 0.1 kg/m3. The mass density ([1]; x1 = 0.2999) was 824.02 ± 0.1 kg/m3, the mass density ([1]; x1 = 0.4006) was 823.14 ± 0.1 kg/m3 and the mass density ([1]; x1 = 0.5001) was 822.18 ± 0.1 kg/m3. It also gave a mass density ([1]; x1 = 0.6) of 821.17 ± 0.1 kg/m3, a mass density ([1]; x1 = 0.6999) of 820.13 ± 0.1 kg/m3 and a mass density ([1]; x1 = 0.7995) of 819.04 ± 0.11 kg/m3. For the same compound, the mass density ([1]; x1 = 0.8998) was 817.86 ± 0.11 kg/m3, the mass density ([1]; x1 = 0.95) was 817.21 ± 0.11 kg/m3 and the mass density ([1]; x1 = 1) was 816.49 ± 0.11 kg/m3. It also gave a refractive index ([2]; x1 = 0.0505) of 1.4349 ± 0.0004, a refractive index ([2]; x1 = 0.1001) of 1.4344 ± 0.0004 and a refractive index ([2]; x1 = 0.1998) of 1.4334 ± 0.0004. For the same compound, the refractive index ([2]; x1 = 0.2999) was 1.4325 ± 0.0004, the refractive index ([2]; x1 = 0.4006) was 1.4315 ± 0.0004 and the refractive index ([2]; x1 = 0.5001) was 1.4304 ± 0.0004. It also gave a refractive index ([2]; x1 = 0.6) of 1.4293 ± 0.0004, a refractive index ([2]; x1 = 0.6999) of 1.4281 ± 0.0004 and a refractive index ([2]; x1 = 0.7995) of 1.427 ± 0.0004. It also gave a refractive index ([2]; x1 = 0.8998) of 1.4257 ± 0.0004, a refractive index ([2]; x1 = 0.95) of 1.4251 ± 0.0004 and a refractive index ([2]; x1 = 1) of 1.4244 ± 0.0004.
Compound `CCCCCCC(C)O` (stereo unspecified) [2-octanol] + CCCCCCCCO has a mass density ([1]; x2 = 0) of 816.49 ± 0.11 kg/m3, a mass density ([1]; x2 = 0.0403) of 816.8 ± 0.11 kg/m3 and a mass density ([1]; x2 = 0.0812) of 817.11 ± 0.11 kg/m3. It also gave a mass density ([1]; x2 = 0.1657) of 817.65 ± 0.11 kg/m3, a mass density ([1]; x2 = 0.2539) of 818.13 ± 0.11 kg/m3 and a mass density ([1]; x2 = 0.3458) of 818.63 ± 0.11 kg/m3. For the same compound, the mass density ([1]; x2 = 0.4421) was 819.16 ± 0.11 kg/m3, the mass density ([1]; x2 = 0.5431) was 819.71 ± 0.1 kg/m3 and the mass density ([1]; x2 = 0.649) was 820.28 ± 0.1 kg/m3. For the same compound, the mass density ([1]; x2 = 0.7603) was 820.85 ± 0.1 kg/m3, the mass density ([1]; x2 = 0.8771) was 821.36 ± 0.1 kg/m3 and the mass density ([1]; x2 = 0.9375) was 821.61 ± 0.1 kg/m3. For the same compound, the refractive index ([2]; x2 = 0) was 1.4243 ± 0.0004, the refractive index ([2]; x2 = 0.0403) was 1.4246 ± 0.0004 and the refractive index ([2]; x2 = 0.0812) was 1.4247 ± 0.0004. It also gave a refractive index ([2]; x2 = 0.1657) of 1.425 ± 0.0004, a refractive index ([2]; x2 = 0.2539) of 1.4253 ± 0.0004 and a refractive index ([2]; x2 = 0.3458) of 1.4255 ± 0.0004. For the same compound, the refractive index ([2]; x2 = 0.4421) was 1.4259 ± 0.0004, the refractive index ([2]; x2 = 0.5431) was 1.4262 ± 0.0004 and the refractive index ([2]; x2 = 0.649) was 1.4265 ± 0.0004. The refractive index ([2]; x2 = 0.7603) was 1.4268 ± 0.0004, the refractive index ([2]; x2 = 0.8771) was 1.4272 ± 0.0004 and the refractive index ([2]; x2 = 0.9375) was 1.4273 ± 0.0004.
`CCCCCCCCCCO` [decan-1-ol] + CCCCCCC(C)O showed a mass density ([1]; x2 = 0) of 826.59 ± 0.1 kg/m3 and a refractive index ([2]; x2 = 0) of 1.4354 ± 0.0004.
For `CCCCCCCCCCO` [decan-1-ol] + CCCCCCCCCCCCN(CCCCCCCCCCCC)CCCCCCCCCCCC, the mass density ([1]; x2 = 0) was 826.59 ± 0.1 kg/m3 and the refractive index ([2]; x2 = 0) was 1.4354 ± 0.0004.
`CCCCCCCCO` [octan-1-ol] + CCCCCCC(C)O showed a mass density ([1]; x1 = 1) of 821.76 ± 0.1 kg/m3 and a refractive index ([2]; x1 = 1) of 1.4275 ± 0.0004.
In the case of `CCCCCCCCO` [octan-1-ol] + CCCCCCCCCCCCN(CCCCCCCCCCCC)CCCCCCCCCCCC, the mass density ([1]; x2 = 0) is reported as 821.76 ± 0.1 kg/m3 and the refractive index ([2]; x2 = 0) is reported as 1.4275 ± 0.0004.
In the case of `CCCCCCCCCCCCN(CCCCCCCCCCCC)CCCCCCCCCCCC` [tridodecylamine], the Normal melting temperature [3] is reported as 16.1 ± 0.4 °C.
For `CCCCCCCCCCCCN(CCCCCCCCCCCC)CCCCCCCCCCCC` [tridodecylamine] + CCCCCCC(C)O, the mass density ([1]; x1 = 0.0526) was 816.69 ± 0.11 kg/m3, the mass density ([1]; x1 = 0.1042) was 816.97 ± 0.11 kg/m3 and the mass density ([1]; x1 = 0.2072) was 817.55 ± 0.11 kg/m3. For the same compound, the mass density ([1]; x1 = 0.31) was 818.03 ± 0.11 kg/m3, the mass density ([1]; x1 = 0.4111) was 818.41 ± 0.11 kg/m3 and the mass density ([1]; x1 = 0.5114) was 818.68 ± 0.11 kg/m3. It also gave a mass density ([1]; x1 = 0.6109) of 818.88 ± 0.11 kg/m3, a mass density ([1]; x1 = 0.7083) of 819.04 ± 0.11 kg/m3 and a mass density ([1]; x1 = 0.805) of 819.15 ± 0.11 kg/m3. The mass density ([1]; x1 = 0.9037) was 819.22 ± 0.11 kg/m3, the mass density ([1]; x1 = 0.9524) was 819.24 ± 0.11 kg/m3 and the mass density ([1]; x1 = 1) was 819.23 ± 0.11 kg/m3. The refractive index ([2]; x1 = 0.0526) was 1.4296 ± 0.0004, the refractive index ([2]; x1 = 0.1042) was 1.4336 ± 0.0004 and the refractive index ([2]; x1 = 0.2072) was 1.4396 ± 0.0004. The refractive index ([2]; x1 = 0.31) was 1.4436 ± 0.0004, the refractive index ([2]; x1 = 0.4111) was 1.4465 ± 0.0004 and the refractive index ([2]; x1 = 0.5114) was 1.4486 ± 0.0004. The refractive index ([2]; x1 = 0.6109) was 1.4503 ± 0.0004, the refractive index ([2]; x1 = 0.7083) was 1.4516 ± 0.0004 and the refractive index ([2]; x1 = 0.805) was 1.4528 ± 0.0004. For the same compound, the refractive index ([2]; x1 = 0.9037) was 1.4537 ± 0.0004, the refractive index ([2]; x1 = 0.9524) was 1.4541 ± 0.0004 and the refractive index ([2]; x1 = 1) was 1.4546 ± 0.0004.
Work on `CCCCCCCCCCCCN(CCCCCCCCCCCC)CCCCCCCCCCCC` [tridodecylamine] + CCCCCCCCCCO yielded a mass density ([1]; x1 = 0.0522) of 825.92 ± 0.1 kg/m3, a mass density ([1]; x1 = 0.104) of 825.24 ± 0.1 kg/m3 and a mass density ([1]; x1 = 0.2071) of 824.17 ± 0.1 kg/m3. It also gave a mass density ([1]; x1 = 0.3096) of 823.37 ± 0.1 kg/m3, a mass density ([1]; x1 = 0.4117) of 822.57 ± 0.1 kg/m3 and a mass density ([1]; x1 = 0.5112) of 821.93 ± 0.1 kg/m3. The mass density ([1]; x1 = 0.6117) was 821.35 ± 0.1 kg/m3, the mass density ([1]; x1 = 0.7097) was 820.82 ± 0.1 kg/m3 and the mass density ([1]; x1 = 0.8078) was 820.35 ± 0.1 kg/m3. It also gave a mass density ([1]; x1 = 0.9041) of 819.86 ± 0.1 kg/m3, a mass density ([1]; x1 = 0.9534) of 819.53 ± 0.1 kg/m3 and a mass density ([1]; x1 = 1) of 819.23 ± 0.11 kg/m3. The refractive index ([2]; x1 = 0.0522) was 1.4385 ± 0.0004, the refractive index ([2]; x1 = 0.104) was 1.4409 ± 0.0004 and the refractive index ([2]; x1 = 0.2071) was 1.4448 ± 0.0004. For the same compound, the refractive index ([2]; x1 = 0.3096) was 1.447 ± 0.0004, the refractive index ([2]; x1 = 0.4117) was 1.4493 ± 0.0004 and the refractive index ([2]; x1 = 0.5112) was 1.4506 ± 0.0004. It also gave a refractive index ([2]; x1 = 0.6117) of 1.4519 ± 0.0004, a refractive index ([2]; x1 = 0.7097) of 1.4528 ± 0.0004 and a refractive index ([2]; x1 = 0.8078) of 1.4535 ± 0.0004. It also gave a refractive index ([2]; x1 = 0.9041) of 1.4541 ± 0.0004, a refractive index ([2]; x1 = 0.9534) of 1.4544 ± 0.0004 and a refractive index ([2]; x1 = 1) of 1.4546 ± 0.0004.
Work on `CCCCCCCCCCCCN(CCCCCCCCCCCC)CCCCCCCCCCCC` [tridodecylamine] + CCCCCCCCO yielded a mass density ([1]; x1 = 0.0652) of 821.91 ± 0.1 kg/m3, a mass density ([1]; x1 = 0.1282) of 821.75 ± 0.1 kg/m3 and a mass density ([1]; x1 = 0.2477) of 821.37 ± 0.1 kg/m3. The mass density ([1]; x1 = 0.3616) was 820.95 ± 0.1 kg/m3, the mass density ([1]; x1 = 0.469) was 820.67 ± 0.1 kg/m3 and the mass density ([1]; x1 = 0.5695) was 820.41 ± 0.1 kg/m3. For the same compound, the mass density ([1]; x1 = 0.6684) was 820.15 ± 0.1 kg/m3, the mass density ([1]; x1 = 0.7531) was 819.94 ± 0.1 kg/m3 and the mass density ([1]; x1 = 0.8438) was 819.65 ± 0.1 kg/m3. For the same compound, the mass density ([1]; x1 = 0.9238) was 819.4 ± 0.1 kg/m3, the mass density ([1]; x1 = 0.9643) was 819.29 ± 0.1 kg/m3 and the mass density ([1]; x1 = 1) was 819.23 ± 0.11 kg/m3. For the same compound, the refractive index ([2]; x1 = 0.0652) was 1.4337 ± 0.0004, the refractive index ([2]; x1 = 0.1282) was 1.438 ± 0.0004 and the refractive index ([2]; x1 = 0.2477) was 1.4434 ± 0.0004. The refractive index ([2]; x1 = 0.3616) was 1.4468 ± 0.0004, the refractive index ([2]; x1 = 0.469) was 1.4491 ± 0.0004 and the refractive index ([2]; x1 = 0.5695) was 1.4506 ± 0.0004. It also gave a refractive index ([2]; x1 = 0.6684) of 1.4519 ± 0.0004, a refractive index ([2]; x1 = 0.7531) of 1.4528 ± 0.0004 and a refractive index ([2]; x1 = 0.8438) of 1.4535 ± 0.0004. The refractive index ([2]; x1 = 0.9238) was 1.4541 ± 0.0004, the refractive index ([2]; x1 = 0.9643) was 1.4544 ± 0.0004 and the refractive index ([2]; x1 = 1) was 1.4546 ± 0.0004.
